Laboratory results: article PMC10313921, “A living ex vivo platform for functional, personalized brain cancer diagnosis” (Cell Reports Medicine, 2023)

What was measured:
Type in all cases: cell-based, human
[1] = test system: MB231Br (breast cancer metastasis to brain); assay: Drug screening of MB231Br tumor foci on OBSCs; settings: MB231BR on OBSCs
[2] = test system: LN229 (established GBM line); assay: Drug screening of LN229 tumor foci on OBSCs
Method: (§1) Tumor cells (0.17 μL, 25,000 cells) were seeded onto OBSCs 2h after slicing, with one tumor seeded in the center of each hemisphere for a total of two tumor foci per OBSC. BSM was changed 24h after slicing. Fluorescence images were taken 0 h, 24 h, and 96 h post-seeding for normalization of tumor size. Bioluminescence readouts were also taken at 0 h, 24 h, and 96 h post seeding for assessment of cell viability. Luciferin was added underneath the culture insert and allowed to incubate for 10 min before bioluminescence measurement on an AMI optical imaging system.
(§2) Tumor cells were seeded onto OBSCs 2h after slicing as described above. One day after tumor seeding, six concentrations of each drug were diluted in the media underneath each culture insert, or XRad was applied using an X-Rad 320 Precision X-ray machine (n = 4 tumor foci per concentration; n ≥ 24 tumor foci per drug per cell line). Three days after treatment, the bioluminescence of live tumor cells was measured using an AMI optical imager (Spectral Instruments) and dose-response curves were generated. Tumor survival was normalized to day one tumor fluorescence and compared to an untreated control group.
(§3) Several weighted parameters were factored into an overall drug sensitivity score.
(§4) For DSS parameters 1–6, therapeutic windows were calculated by comparing OBSC toxicity and tumor response at the doses where tumor kill passed through the DSS parameter (Table S1 and S3). For DSS parameter 7, the therapeutic window was calculated by comparing the slopes through the tumor EC50 and the OBSC tox EC50. For DSS parameter 8, the therapeutic window was calculated by comparing the areas under tumor kill and OBSC tox curves. Normalized therapeutic window ratios for DSS parameters 1–8 within each drug-tumor-OBSC interaction were calculated in the following manner: within each window, values ranged from +1 to −1, where values approaching +1 signify increasing tumor kill relative to normal tissue toxicity, and values approaching −1 indicate agents where tumors remained highly viable while toxicity to the normal OBSC tissue was elevated. DSS parameters 9–11 were determined based on the behavior of the tumor in response to the drug, as defined above.
(§5) All individually weighed parameters were added together to generate the DSS. Overall DSS from 0 to 100 signify increasing efficacy in tumor kill relative to OBSC toxicity, while scores from 0 to −100 describe scenarios in which tumors thrive more effectively than OBSCs for a given treatment. Dose-response values were calculated via linear interpolation of raw data, not from best-fit curve equations.

[3] = test system: U373WT (wild-type established GBM line); assay: Drug screening of U373WT tumor foci on OBSCs
Method: as §1, §2, §3, §4, §5

[4] = test system: U373KO (RAD18 knockout of U373WT via CRISPR); assay: Drug screening of U373KO tumor foci on OBSCs; settings: U373 KO on OBSCs
Method: as §1, §2, §3, §4, §5

[5] = test system: GBM8 (high-passage patient-derived GBM line); assay: Drug screening of GBM8 tumor foci on OBSCs; settings: GBM8 on OBSCs
Method: as §1, §2, §3, §4, §5

[6] = test system: MS21 (low-passage patient-derived GBM line); assay: Drug screening of MS21 tumor foci on OBSCs; settings: MS21 on OBSCs
Method: as §1, §2, §3, §4, §5

[7] = test system: PDIPG (low-passage pediatric patient-derived line); assay: Drug screening of PDIPG tumor foci on OBSCs; settings: PDIPG on OBSCs
Method: as §1, §2, §3, §4, §5

[8] = test system: 7 cell lines (MB231Br, LN229, U373WT, U373KO, GBM8, MS21, PDIPG); assay: Drug screening on OBSCs, summary over the panel of seven tumor lines; settings: number of lines responding
Method: as §1, §2, §3, §4, §5

[9] = area under the dose-response curve, trapezoidal rule
[10] = dose required to kill 10% of the tumor
[11] = dose required to kill 25% of the tumor
[12] = dose required to kill 50% of the tumor
[13] = dose required to kill 75% of the tumor
[14] = dose required to kill 90% of the tumor
[15] = dose required to kill 50% of the tumor, read-out: EC50
[16] = dose required to kill 90% of the tumor, read-out: EC90

N.N.[Cl][Pt][Cl] [Cisplatin]
Killing at highest dose [1]: 1.00E+00 fraction of tumor population killed
AUC [1, 9]: 6.20E+01
EC10 [1, 10]: 74.1 µM
EC25 [1, 11]: 87.1 µM
EC50 [1, 12]: 125 µM
EC75 [1, 13]: 188 µM
EC90 [1, 14]: 225 µM
Slope ([1]; slope through the EC50): -4.00E-03
Killing at highest dose [2]: 1.00E+00 fraction of tumor population killed
AUC [2, 9]: 7.69E+01
EC10 [2, 10]: 74.6 µM
EC25 [2, 11]: 81.3 µM
EC50 [2, 12]: 92.4 µM
EC75 [2, 13]: 136 µM
EC90 [2, 14]: 205 µM
Slope ([2]; slope through the EC50): -2.20E-03
Killing at highest dose ([3]; U373 WT on OBSCs): 1.00E+00 fraction of tumor population killed
AUC ([3]; U373 WT on OBSCs, area under the dose-response curve, trapezoidal rule): 1.33E+01
EC10 ([3]; U373 WT on OBSCs, dose required to kill 10% of the tumor): 20.3 µM
EC25 ([3]; U373 WT on OBSCs, dose required to kill 25% of the tumor): 28.4 µM
EC50 ([3]; U373 WT on OBSCs, dose required to kill 50% of the tumor): 41.9 µM
EC75 ([3]; U373 WT on OBSCs, dose required to kill 75% of the tumor): 65.2 µM
EC90 ([3]; U373 WT on OBSCs, dose required to kill 90% of the tumor): 87.9 µM
Slope ([3]; U373 WT on OBSCs, slope through the EC50): -1.85E-02
DSS (drug sensitivity score) ([3]; U373 WT, scale -100 to +100, tumor kill relative to OBSC toxicity): 62
Killing at highest dose [4]: 1.00E+00 fraction of tumor population killed
AUC [4, 9]: 1.56E+01
EC10 [4, 10]: 33.2 µM
EC25 [4, 11]: 36.5 µM
EC50 [4, 12]: 42 µM
EC75 [4, 13]: 47.6 µM
EC90 [4, 14]: 114 µM
Slope ([4]; slope through the EC50): -4.53E-02
Killing at highest dose [5]: 1.00E+00 fraction of tumor population killed
AUC [5, 9]: 1.76E-01
EC10 [5, 10]: 0.0906 µM
EC25 [5, 11]: 0.226 µM
EC50 [5, 15]: 453 nM
EC75 [5, 13]: 2.74 µM
EC90 [5, 16]: 4.2 µM
Slope ([5]; slope through the EC50): -1.10E+00
Killing at highest dose [6]: 9.99E-01 fraction of tumor population killed
AUC [6, 9]: 4.20E+00
EC10 [6, 10]: 4.55 µM
EC25 [6, 11]: 11.6 µM
EC50 [6, 15]: 24.7 µM
EC75 [6, 13]: 37.9 µM
EC90 [6, 16]: 45.7 µM
Slope ([6]; slope through the EC50): -1.90E-02
Killing at highest dose [7]: 1.00E+00 fraction of tumor population killed
AUC [7, 9]: 4.87E+00
EC10 [7, 10]: 3.17 µM
EC25 [7, 11]: 7.94 µM
EC50 [7, 15]: 16.8 µM
EC75 [7, 13]: 27.3 µM
EC90 [7, 16]: 41.5 µM
Slope ([7]; slope through the EC50): -2.73E-02
response / killing over the 7 cell lines [8]: robust response
